Measured values reported in patent US20180244660A1, “CYCLOPROPYLDERIVATIVES AND THEIR USE AS KINASE INHIBITORS” (Karyopharm Therapeutics Inc., priority 2015, published 2018).
Where two headings read alike, the source gives them in different places.

What was measured:
[1] = system: Z138 cells; experiment: MTT cell proliferation assay, Z138 cells; type: cell-based, human
Description: (§1) The MTT cell proliferation assay was used to study the cytotoxic properties of the compounds. The assay was performed according to the method described by Roche Molecular Biochemicals, with minor modifications. The assay is based on the cleavage of the tetrazolium salt, MTT, in the presence of an electron-coupling reagent. The water-insoluble formazan salt produced must be solubilized in an additional step. Cells grown in a 96-well tissue culture plate were incubated with the MTT solution for approximately 4 hours. After this incubation period, a water-insoluble formazan dye formed. After solubilization, the formazan dye was quantitated using a scanning multi-well spectrophotometer (ELISA reader). […] The cells were seeded at 5,000-10,000 cells in each well of 96-well plate in 100 μL of fresh culture medium and were allowed to attach overnight. The stock solutions of the compounds were diluted in 100 μL cell culture medium to obtain eight concentrations of each test compound, ranging from 1 nM to 30 μM. […] All optical densities were measured at 490 nm using a Vmax Kinetic Microplate Reader (Molecular Devices). In most cases, the assay was performed in duplicate and the results were presented as a mean percent inhibition to the negative control+SE. The following formula was used to calculate the percent of inhibition: Inhibition (%)=(1−(ODo/OD))×100.
(§2) The compounds were tested against MS751, Z138 and 3T3 cells. The MS751 cell line is derived from a metastasis to lymph node of human cervix from a patient diagnosed with squameous cell carcinoma of the cervix. The Z138 cell line is a mature B-cell acute lymphoblastic leukemia cell line derived from a patient with chronic lumphocytic leukemia. 3T3 cells are standard fibroblast cells; they were originally isolated from Swiss mouse embryo tissue.

[2] = system: 3T3 cells; experiment: MTT cell proliferation assay, 3T3 cells; type: cell-based, mouse; conditions: 3T3 fibroblast cells, incubation approximately 64-72 hours
Description: as §1, §2

[3] = system: MS751 cells; experiment: MTT cell proliferation assay, MS751 cells; type: cell-based, human; conditions: incubation approximately 64-72 hours, read-out: MTT Assay IC50 MS 751
Description: as §1, §2

[4] = Homo sapiens, Z-138, incubation approximately 64-72 hours

Compound	IC50 [1, 4]	IC50 ([2]; Mus musculus, NIH3T3)	IC50 ([3]; Homo sapiens)	IC50 ([1]; incubation approximately 64-72 hours, read-out: MTT Assay IC50 Z-138)	IC50 [3]	IC50 [2]
Nc1ccc([C@H]2C[C@@H]2C(=O)NCc2cc3cc(-c4ccc(C(=O)N5CCNCC5)cc4)cc(-c4ccc(F)cc4)c3o2)cn1 (stereo in doubt) [Compound K027, (1S,2S)-2-(6-aminopyridin-3-yl)-N—((7-(4-fluorophenyl)-5-(4-(piperazine-1-carbonyl)phenyl)benzofuran-2-yl)methyl)cyclopropanecarboxamide]	< 1 µM	> 10 µM	–	–	–	–
Nc1ccc([C@H]2C[C@@H]2C(=O)NCc2cc3cc(-c4ccc(C(=O)N5CCC(F)(F)CC5)cn4)cc(-c4ccc(F)cc4)c3o2)cn1 [Compound K012, (1S,2S)-2-(6-aminopyridin-3-yl)-N—((5-(5-(4,4-difluoropiperidine-1-carbonyl)pyridin-2-yl)-7-(4-fluorophenyl)benzofuran-2-yl)methyl)cyclopropanecarboxamide]	< 1 µM	1 to 5 µM	< 1 µM	–	–	–
Nc1ccc([C@H]2C[C@@H]2c2nc(-c3cc4cc(-c5ccc(C(=O)N6CC(F)C6)cc5)cc(-c5ccc(F)cc5)c4o3)co2)cn1 [Compound K029, (4-(2-(2-((1S,2S)-2-(6-aminopyridin-3-yl)cyclopropyl)oxazol-4-yl)-7-(4-fluorophenyl)benzofuran-5-yl)phenyl)(3-fluoroazetidin-1-yl)methanone]	1 to 5 µM	> 10 µM	1 to 5 µM	–	–	–
Nc1ccc([C@H]2C[C@@H]2C(=O)NCc2cc3cc(-c4ccc(C(=O)N5CCC(F)(F)CC5)cc4)cc(-c4cccc(F)c4)c3o2)cn1 [Compound K014, (1S,2S)-2-(6-aminopyridin-3-yl)-N—((5-(4-(4,4-difluoropiperidine-1-carbonyl)phenyl)-7-(3-fluorophenyl)benzofuran-2-yl)methyl)cyclopropanecarboxamide]	< 1 µM	1 to 5 µM	< 1 µM	–	–	–
Nc1ccc([C@H]2C[C@@H]2C(=O)NCc2cnc(-c3ccc(-c4ccc(C(=O)N5CC(F)(F)C5)cc4)cc3C(F)(F)F)o2)cn1 [Compound K025, (1S,2S)-2-(6-aminopyridin-3-yl)-N—((2-(4′-(3,3-difluoroazetidine-1-carbonyl)-3-(trifluoromethyl)biphenyl-4-yl)oxazol-5-yl)methyl)cyclopropanecarboxamide]	1 to 5 µM	> 10 µM	1 to 5 µM	–	–	–
[2H]c1c(CNC(=O)[C@H]2C[C@@H]2c2ccc(N)nc2)oc2c(-c3ccc(F)cc3)cc(-c3ccc(C(=O)N4CC(F)C4)cc3)cc12 [Compound K026, (1S,2S)-2-(6-aminopyridin-3-yl)-N—((3-deutero-5-(4-(3-fluoroazetidine-1-carbonyl)phenyl)-7-(4-fluorophenyl)benzofuran-2-yl)methyl)cyclopropanecarboxamide]	< 1 µM	1 to 5 µM	< 1 µM	–	–	–
Nc1ccc([C@@H]2C[C@H]2C(=O)NCCCOc2cc(-c3ccc(C(=O)N4CCC(F)(F)CC4)cc3)cc(C(F)(F)F)c2)cn1 [Compound K006, (1R,2R)-2-(6-aminopyridin-3-yl)-N—(3-(4′-(4,4-difluoropiperidine-1-carbonyl)-5-(trifluoromethyl)biphenyl-3-yloxy)propyl)cyclopropanecarboxamide]	< 1 µM	1 to 5 µM	< 1 µM	–	–	–
Nc1ccc(C2CC2C(=O)NCCCOc2cc(-c3ccc(C(=O)N4CCC(F)(F)CC4)cc3)cc(C(F)(F)F)c2)cn1 (centres unmarked) [Compound K002, 2-(6-aminopyridin-3-yl)-N—(3-(4′-(4,4-difluoropiperidine-1-carbonyl)-5-(trifluoromethyl)biphenyl-3-yloxy)propyl)cyclopropanecarboxamide]	< 1 µM	1 to 5 µM	< 1 µM	–	–	–
Nc1ccc([C@H]2C[C@@H]2C(=O)NCc2cc3cc(-c4ccc(C(=O)N5CCC(F)(F)C5)cc4)cc(-c4ccc(F)cc4)c3o2)cn1 [Compound K017, (1S,2S)-2-(6-aminopyridin-3-yl)-N—((5-(4-(3,3-difluoropyrrolidine-1-carbonyl)phenyl)-7-(4-fluorophenyl)benzofuran-2-yl)methyl)cyclopropanecarboxamide]	< 1 µM	1 to 5 µM	< 1 µM	–	–	–
Nc1ccc([C@H]2C[C@@H]2C(=O)NCc2cc3cc(-c4ccc(C(=O)N5CC(F)C5)cc4)cc(-c4ccc(F)cc4)c3o2)cn1 [Compound K020, (1S,2S)-2-(6-aminopyridin-3-yl)-N—((5-(4-(3-fluoroazetidine-1-carbonyl)phenyl)-7-(4-fluorophenyl)benzofuran-2-yl)methyl)cyclopropanecarboxamide]	< 1 µM	1 to 5 µM	< 1 µM	–	–	–
Nc1ccc(C2CC2C(=O)NCc2ccc(-c3ccc(-c4ccc(C(=O)N5CCC(F)(F)CC5)cn4)cc3C(F)(F)F)o2)cn1 (centres unmarked) [Compound K009, 2-(6-aminopyridin-3-yl)-N—((5-(4-(5-(4,4-difluoropiperidine-1-carbonyl)pyridin-2-yl)-2-(trifluoromethyl)phenyl)furan-2-yl)methyl)cyclopropanecarboxamide]	< 1 µM	5 to 10 µM	< 1 µM	–	–	–
Cn1c(CNC(=O)[C@H]2C[C@@H]2c2ccc(N)nc2)cc2cc(-c3ccc(C(=O)N4CCC(F)(F)CC4)cc3)cc(-c3ccc(F)cc3)c21 [Compound K023, (1S,2S)-2-(6-aminopyridin-3-yl)-N—((5-(4-(4,4-difluoropiperidine-1-carbonyl)phenyl)-7-(4-fluorophenyl)-1-methyl-1H-indol-2-yl)methyl)cyclopropanecarboxamide]	1 to 5 µM	> 10 µM	1 to 5 µM	–	–	–
(1S,2S)-2-(6-aminopyridin-3-yl)-N—((7-chloro-5-(4-(3,3-difluoroazetidine-1-carbonyl)phenyl)-2,3-dihydrobenzofuran-2-yl)methyl)cyclopropanecarboxamide [Compound K028]	–	–	–	< 1 µM	< 1 µM	> 10 µM
Nc1ccc(C2CC2C(=O)NCc2cc3cc(-c4ccc(C(=O)N5CCC(F)(F)CC5)cc4F)cc(-c4ccc(F)cc4)c3o2)cn1 (centres unmarked) [Compound K004, 2-(6-aminopyridin-3-yl)-N—((5-(4-(4,4-difluoropiperidine-1-carbonyl)-2-fluorophenyl)-7-(4-fluorophenyl)benzofuran-2-yl)methyl)cyclopropanecarboxamide]	< 1 µM	> 10 µM	< 1 µM	–	–	–
Nc1ccc([C@H]2C[C@@H]2C(=O)NCc2cc3cc(-c4ccc(C(=O)N5CCC(F)(F)CC5)cc4)cc(-c4ccc(F)cc4)c3[nH]2)cn1 [Compound K022, (1S,2S)-2-(6-aminopyridin-3-yl)-N—((5-(4-(4,4-difluoropiperidine-1-carbonyl)phenyl)-7-(4-fluorophenyl)-1H-indol-2-yl)methyl)cyclopropanecarboxamide]	5 to 10 µM	> 10 µM	1 to 5 µM	–	–	–
Nc1ccc([C@H]2C[C@@H]2C(=O)NCc2cc3cc(-c4ccc(C(=O)N5CC(F)C5)cc4F)cc(-c4ccc(F)cc4)c3o2)cn1 [Compound K024, (1S,2S)-2-(6-aminopyridin-3-yl)-N—((5-(2-fluoro-4-(3-fluoroazetidine-1-carbonyl)phenyl)-7-(4-fluorophenyl)benzofuran-2-yl)methyl)cyclopropanecarboxamide]	< 1 µM	< 1 µM	< 1 µM	–	–	–
Nc1ccc([C@H]2C[C@@H]2C(=O)NCc2cc3cc(-c4ccc(C(=O)N5CCC(F)(F)CC5)cc4)cc(C(F)(F)F)c3o2)cn1 [Compound K007, (1S,2S)-2-(6-aminopyridin-3-yl)-N—((5-(4-(4,4-difluoropiperidine-1-carbonyl)phenyl)-7-(trifluoromethyl)benzofuran-2-yl)methyl)cyclopropanecarboxamide]	1 to 5 µM	> 10 µM	1 to 5 µM	–	–	–
Nc1ccc(C2CC2C(=O)NCCOc2ccc(-c3ccc(C(=O)N4CCC(F)(F)CC4)cc3)cc2-c2ccc(F)cc2F)cn1 (centres unmarked) [Compound K003, 2-(6-aminopyridin-3-yl)-N—(2-(3-(2,4-difluorophenyl)-4′-(4,4-difluoropiperidine-1-carbonyl)biphenyl-4-yloxy)ethyl)cyclopropanecarboxamide]	< 1 µM	5 to 10 µM	< 1 µM	–	–	–
Nc1ccc([C@H]2C[C@@H]2C(=O)NCc2cc3cc(-c4ccc(C(=O)N5CCC(F)(F)CC5)cc4)cc(-c4ccc(F)cc4)c3o2)cn1 [Compound K011, (1S,2S)-2-(6-aminopyridin-3-yl)-N—((5-(4-(4,4-difluoropiperidine-1-carbonyl)phenyl)-7-(4-fluorophenyl)benzofuran-2-yl)methyl)cyclopropanecarboxamide]	< 1 µM	> 10 µM	< 1 µM	–	–	–
